Reference: US5540931A, “Methods for inducing site-specific immunosuppression and compositions of site specific immunosuppressants” (Hewitt; Charles W., priority 1994, dated 1996)

Key:
[1] = test system: mixed lymphocyte responses; experiment: In vitro site-specific mixed lymphocyte response; format: cell-based; conditions: FIGS. 14 A and B
[2] = test system: contact hypersensitivity reactions of skin tissue; conditions: topical
Excerpt: Rapamycin (0.01%), cyclosporine (0.1%), and rapamycin-cyclosporine (0.01%/0.1%) combined formulations, were applied in a trinary drug delivery system consisting of 1,2 propanediol, diethylene glycol monoethyl ether, and a glyceryl caprylate/caprate polyethylene glycol complex.
To further elaborate, rapamycin (0.001%), cyclosporine (0.01%), and rapamycin-cyclosporine (0.001%/0.01%) combined formulations, were applied in a trinary drug delivery system consisting of 1,2 propanediol, diethylene glycol monoethyl ether, and a glyceryl caprylate/caprate polyethylene glycol complex (6:3:1).

## CO[C@H]1C[C@@H]2CC[C@@H](C)[C@@](O)(O2)C(=O)C(=O)N2CCCC[C@H]2C(=O)O[C@H]([C@H](C)C[C@@H]2CC[C@@H](O)[C@H](OC)C2)CC(=O)[C@H](C)/C=C(\C)[C@@H](O)[C@@H](OC)C(=O)[C@H](C)C[C@H](C)/C=C/C=C/C=C/1C [Rapamycin, rapamycin]
[1]; agent alone
  site-specific immune suppression of primary or activated cellular immune responses: provided potent site-specific immune suppression
[1]; local application
  efficacy by inflammatory immune phase (early versus late): surprisingly efficacious with local application during both late and early inflammatory immune phases
[2]; contact dermatitis model
  efficacy by local inflammatory immune phase (early versus late): particularly efficacious during the late local inflammatory-immune phase
[2]; rapamycin 0.001%, cyclosporine 0.01%, combination 0.001%/0.01%, trinary vehicle (6:3:1)
  site-specific immune suppression in contact dermatitis at low concentrations: provided surprising site-specific immune suppression
[2]; rapamycin 0.01%, cyclosporine 0.1%, combination 0.01%/0.1%, 1,2 propanediol/Transcutol/Labrasol vehicle, FIG. 13B
  local inflammatory/immune response in contact hypersensitivity: inhibited local inflammatory/immune responses
